Results on 26 compounds are retold here after patent publication US10308620B2, “Muscarinic M1 receptor positive allosteric modulators” (SUVEN LIFE SCIENCES LIMITED, priority 2015, dated 2019).

The assay has as its target recombinant human Muscarinic M1 receptor (Homo sapiens (Human), UniProt P11229). As to the kind of experiment: Allosteric potency EC50, CHO cells with pCRE-Luc reporter, in presence of EC20 of acetylcholine. It is filed as cell-based. Particulars: 4 hours. Here is the method:
Determination of Allosteric Potency EC50 Values for Muscarinic M1 Receptor:
A stable CHO cell line expressing recombinant human Muscarinic M1 receptor and pCRE-Luc reporter system was used for cell-based assay. The assay offers a non-radioactive based approach to determine binding of a compound to GPCRs. In this specific assay, the level of intracellular cyclic AMP which is modulated by activation or inhibition of the receptor is measured. The recombinant cells harbor luciferase reporter gene under the control of cAMP response element.
The above cells were grown in 96 well clear bottom white plates in Hams F12 medium containing 10% fetal bovine serum (FBS). Prior to the addition of compounds or standard agonist, cells were serum starved overnight. Increasing concentrations of test compounds were added along with EC20 of acetylcholine in OptiMEM medium to the cells. The incubation was continued at 37° C. in CO2 incubator for 4 hours. Medium was removed and cells were washed with phosphate buffered saline. The cells were lysed and luciferase activity was measured in a Luminometer. Luminescence units were plotted against the compound concentrations using Graphpad software. EC50 values of the compounds were defined as the concentration required in stimulating the luciferase activity by 50% in presence of EC20 of acetylcholine.

recombinant human Muscarinic M1 receptor, sequence (P11229 whole entry): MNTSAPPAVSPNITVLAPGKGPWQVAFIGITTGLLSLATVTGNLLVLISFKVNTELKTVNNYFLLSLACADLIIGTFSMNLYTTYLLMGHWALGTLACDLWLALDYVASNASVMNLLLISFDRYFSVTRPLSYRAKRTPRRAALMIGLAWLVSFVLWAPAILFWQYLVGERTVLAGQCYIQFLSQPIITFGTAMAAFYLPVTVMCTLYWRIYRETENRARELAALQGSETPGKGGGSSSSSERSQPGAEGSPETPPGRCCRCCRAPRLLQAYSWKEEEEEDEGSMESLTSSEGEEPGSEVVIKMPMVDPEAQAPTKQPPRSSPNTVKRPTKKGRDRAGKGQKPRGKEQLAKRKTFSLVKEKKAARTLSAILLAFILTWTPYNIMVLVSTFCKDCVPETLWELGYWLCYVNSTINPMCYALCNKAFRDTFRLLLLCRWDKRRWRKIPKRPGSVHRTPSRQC

`O=C(N[C@H]1CCCC[C@@H]1O)C1=CN(Cc2ccccc2F)c2cccc(F)c2O1` [Example 2, N-(cis-1S,2S-2-Hydroxycyclohexyl)-4-(2-fluorobenzyl)-8-fluoro-4H-benzo[1,4]oxazine-2-carboxamide]: the EC50 (commonly the concentration that produces a half-maximal response) is 134 nM. With `O=C(N[C@H]1CCCC[C@@H]1O)C1=CN(Cc2ccccc2F)c2ncccc2O1` [Example 3, N-(cis-1S,2S-2-Hydroxycyclohexyl)-4-{2-fluorobenzyl}-4H-pyrido[3,2-b][1,4]oxazine-2-carboxamide] the figure was 1150 nM; with `COc1ccc(CN2C=C(C(=O)NCC(C)(C)O)Oc3ccccc32)cc1` [Example 6, N-(2-Hydroxy-2-methylpropyl)-4-(4-methoxybenzyl)-4H-benzo[1,4]oxazine-2-carboxamide], 1510 nM; with `CC(C)(O)CNC(=O)C1=CN(Cc2cccc(F)c2)c2ccccc2O1` [Example 8, N-(2-Hydroxy-2-methylpropyl)-4-(3-fluorobenzyl)-4H-benzo[1,4]oxazine-2-carboxamide], 2890 nM. With `COc1cccc(CN2C=C(C(=O)NCC(C)(C)O)Oc3ccccc32)c1` [Example 10, N-(2-Hydroxy-2-methylpropyl)-4-(3-methoxybenzyl)-4H-benzo[1,4]oxazine-2-carboxamide] the figure was 1550 nM.

`COc1cc(CN2C=C(C(=O)NCC(C)(C)O)Oc3ccccc32)ccn1` [Example 12, N-(2-Hydroxy-2-methylpropyl)-4-(2-methoxypyridin-4-ylmethyl)-4H-benzo[1,4]oxazine-2-carboxamide]: the concentration for a half-maximal effect (EC50) came out at 1510 nM. As for `O=C(N[C@H]1CCCC[C@@H]1O)C1=CN(Cc2ccc(F)cc2)c2ccccc2O1` [Example 13, N-(cis-1S,2S-2-Hydroxycyclohexyl)-4-(4-fluorobenzyl)-4H-benzo[1,4]oxazine-2-carboxamide], the figure is 907 nM; as for `CC(C)(O)CNC(=O)C1=CN(Cc2ccc(F)cc2)c2ccccc2O1` [Example 14, N-(2-Hydroxy-2-methylpropyl)-4-(4-fluorobenzyl)-4H-benzo[1,4]oxazine-2-carboxamide], 1360 nM. As for `COc1ccc(CN2C=C(C(=O)N[C@H]3CCCC[C@@H]3O)Oc3ccccc32)cn1` [Example 15, N-(cis-1S,2S-2-Hydroxycyclohexyl)-4-(2-methoxypyridin-5-ylmethyl)-4H-benzo[1,4]oxazine-2-carboxamide], the figure is 591 nM; as for `COc1ccc(CN2C=C(C(=O)NCC(C)(C)O)Oc3ccccc32)cn1` [Example 16, N-(2-Hydroxy-2-methylpropyl)-4-(2-methoxypyridin-5-ylmethyl)-4H-benzo[1,4]oxazine-2-carboxamide], 1350 nM. As for `O=C(N[C@H]1CCCC[C@@H]1O)C1=CN(Cc2cccnc2)c2ccccc2O1` [Example 22, N-(cis-1S,2S-2-Hydroxycyclohexyl)-4-(pyridin-3-ylmethyl)-4H-benzo[1,4]oxazine-2-carboxamide], the figure is 353 nM. Consider `O=C(N[C@H]1CCCC[C@@H]1O)C1=CN(Cc2ccnc(Cl)c2)c2ccccc2O1` [Example 24, N-(cis-1S,2S-2-Hydroxycyclohexyl)-4-(2-chloropyridin-4-ylmethyl)-4H-benzo[1,4]oxazine-2-carboxamide], for which the EC50 stood at 514 nM.

For `O=C(N[C@H]1CCCC[C@@H]1O)C1=CN(Cc2ccccn2)c2ccccc2O1` [Example 25, N-(cis-1S,2S-2-Hydroxycyclohexyl)-4-(pyridin-2-ylmethyl)-4H-benzo[1,4]oxazine-2-carboxamide], the EC50 was 911 nM. With `O=C(N[C@H]1CCCC[C@@H]1O)C1=CN(Cc2ccc(Cl)c(Cl)c2)c2ccccc2O1` [Example 26, N-(cis-1S, 2S-2-Hydroxycyclohexyl)-4-(3,4-dichlorobenzyl)-4H-benzo[1,4]oxazine-2-carboxamide] the figure was 159 nM. As for `Cc1ncccc1CN1C=C(C(=O)N[C@H]2CCCC[C@@H]2O)Oc2ccccc21` [Example 27, N-(cis-1S,2S-2-Hydroxycyclohexyl)-4-(2-methylpyridin-3-ylmethyl)-4H-benzo[1,4]oxazine-2-carboxamide], the figure is 1370 nM; as for `O=C(N[C@H]1CCCC[C@@H]1O)C1=CN(Cc2ccc(Cl)cc2Cl)c2ccccc2O1` [Example 28, N-(cis-1S, 2S-2-Hydroxycyclohexyl)-4-(2,4-dichlorobenzyl)-4H-benzo[1,4]oxazine-2-carboxamide], 250 nM; as for `O=C(N[C@H]1CCCC[C@@H]1O)C1=CN(Cc2cccc(F)c2F)c2cccc(F)c2O1` [Example 29, N-(cis-1S,2S-2-Hydroxycyclohexyl)-4-(2,3-difluorobenzyl)-8-fluoro-4H-benzo[1,4]oxazine-2-carboxamide], 140 nM.

For the compound `O=C(N[C@H]1CCCC[C@@H]1O)C1=CN(Cc2ccccc2)c2ncccc2O1` [Example 30, N-(cis-1S, 2S-2-Hydroxycyclohexyl)-4-benzyl-4H-pyrido[3,2-b][1,4]oxazine-2-carboxamide], the concentration giving a half-maximal response (EC50) came out at 955 nM. As for `O=C(N[C@H]1CCCC[C@@H]1O)C1=CN(Cc2ccncc2F)c2ccccc2O1` [Example 34, N-(cis-1S,2S-2-Hydroxycyclohexyl)-4-(3-fluoropyridin-4-ylmethyl)-4H-benzo[1,4]oxazine-2-carboxamide], the figure is 1520 nM; as for `O=C(N[C@H]1CCCC[C@@H]1O)C1=CN(Cc2ccc(F)cc2)c2ncccc2O1` [Example 35, N-(cis-1S,2S-2-Hydroxycyclohexyl)-4-(4-fluorobenzyl)-4H-pyrido[3,2-b][1,4]oxazine-2-carboxamide], 1580 nM. As for `O=C(N[C@H]1CCCC[C@@H]1O)C1=CN(Cc2cccc(F)c2)c2cccnc2O1` [Example 36, N-(cis-1S,2S-2-Hydroxycyclohexyl)-1-(3-fluorobenzyl)-1H-pyrido[2,3-b][1,4]oxazine-3-carboxamide], the EC50 amounted to 1540 nM. With `O=C(N[C@H]1CCCC[C@@H]1O)C1=CN(Cc2ccccc2C(F)(F)F)c2ccccc2O1` [Example 37, N-(cis-1S, 2S-2-Hydroxycyclohexyl)-4-(2-trifluoromethylbenzyl)-4H-benzo[1,4]oxazine-2-carboxamide] the figure was 534 nM. With `O=C(N[C@H]1CCCC[C@@H]1O)C1=CN(Cc2ccccc2Cl)c2cccc(F)c2O1` [Example 38, N-(cis-1S, 2S-2-Hydroxycyclohexyl)-4-(2-chlorobenzyl)-8-fluoro-4H-benzo[1,4]oxazine-2-carboxamide] the figure was 262 nM. With `O=C(N[C@@H]1CCC[C@H]1O)C1=CN(Cc2cccc(F)c2F)c2ccccc2O1` [Example 39, N-(trans-1R,2R-2-Hydroxycyclopentyl)-4-(2,3-difluorobenzyl)-4H-benzo[1,4]oxazine-2-carboxamide] the figure was 1550 nM; with `O=C(N[C@@H]1CCC[C@H]1O)C1=CN(Cc2ccccc2F)c2ccccc2O1` [Example 40, N-(trans-1R,2R-2-Hydroxycyclopentyl)-4-(2-fluorobenzyl)-4H-benzo[1,4]oxazine-2-carboxamide], 1530 nM; with `O=C(N[C@H]1CCCC[C@@H]1O)C1=CN(Cc2ccccc2Cl)c2ccccc2O1` [Example 41, N-(cis-1S, 2S-2-Hydroxycyclohexyl)-4-(2-chlorobenzyl)-4H-benzo[1,4]oxazine-2-carboxamide], 168 nM.
